Assay results taken from paper PMC11496352, “Synthesis of Novel Plant-Derived Encapsulated Radiolabeled Compounds for the Diagnosis of Parkinson’s Disease and the Evaluation of Biological Effects with In Vitro/In Vivo Methods” (Molecular Neurobiology, 2024).

What was measured:
[1] = test system: SH-SY5Y cell line; test: Cytotoxicity study (WST) on SH-SY5Y cells; assay type: cell-based; settings: Homo sapiens
Description: (§1) SY-SH5Y and PC-12 cell lines were used in in vitro cell culture studies. SH-SY5Y cells in a medium consisting of minimum Essential Medium (Eagle) and 10% fetal bovine serum (FBS); PC-12 cells were produced in a medium consisting of RPMI 1640 medium, 10% horse serum, and 5% fetal bovine serum (FBS). All cells were incubated in 5% CO2 and 37 °C. Fresh medium was added by changing the medium every 2 days. After the cells were produced enough to cover 80% of the flasks, they were separated from the flask by means of a 0.25% (W / V) trypsin–EDTA solution and plated in 24-well plates for incorporation studies and 96-well plates for cytotoxicity studies and study groups were formed.
(§2) Cells were prepared from SY-SH5Y and PC-12 cell suspensions at 5 × 10^4 cells / mL in each well of 96-well plates. One hundred microliters of cell suspension was added to each well-formed and the solution containing MA prepared with sterile SF at five different (10^0, 10^–1, 10^–2, 10^–3, 10^–4 nM) concentrations was added to the wells outside the control. As a negative control, media without cells and reagents were used. In the study, each parameter was studied in triplicate. The plate containing the cells was incubated at 37 °C in 5% CO2. SH-SY5Y cells were incubated at 24, 48, and 72 h of incubation by adding 10 μl of WST solution to each well and incubating for another 4 h. On other hand, MTT solution was added to PC-12 cells and incubated for 4 more hours. At the end of the incubation, the MTT solution on the cells was removed and 200 µL DMSO was added to the PC-12 cells. All cells were read using a spectrophotometer, at 450 nm wavelength and 690 nm reference range, for the absorbance value of each well. Negative control was accepted as zero absorbance and % viability values were calculated with the formula [(measured absorbance value/control value) × 100] and the same procedures were repeated for the MA-L-DOPA compound.

[2] = test system: PC-12 cell line; test: Cytotoxicity study (MTT) on PC-12 cells; assay type: cell-based; settings: Rattus norvegicus
Description: as §1, §2

[3] = parameters: method as in PMID 27992940; settings: rats; cited from earlier work

| Structure (SMILES) | IC50 ([1]; 24 hour) [µM] | IC50 ([1]; 48 hour) [µM] | IC50 ([1]; 72 hour) [µM] | IC50 ([2]; PC-12, 24 hour) [µM] | IC50 ([2]; PC-12, 48 hour) [µM] | IC50 ([2]; PC-12, 72 hour) [µM] | time within which uptake in the brain tissue occurs [3] [h] |
| --- | --- | --- | --- | --- | --- | --- | --- |
| C[C@H]1[C@H](C)CC[C@]2(C(=O)O[C@@H]3O[C@H](CO[C@@H]4O[C@H](CO)[C@@H](O[C@@H]5O[C@@H](C)[C@H](O)[C@@H](O)[C@H]5O)[C@H](O)[C@H]4O)[C@@H](O)[C@H](O)[C@H]3O)CC[C@]3(C)C(=CC[C@@H]4[C@@]5(C)C[C@@H](O)[C@H](O)[C@@](C)(CO)[C@@H]5[C@H](O)C[C@]43C)[C@H]12 [MA, Madecassoside] | 12.9 ± 2.14 | 12.8 ± 2.24 | 7.45 ± 1.14 | 12.8 ± 2.21 | 12.6 ± 2.41 | 8.54 ± 1.37 | ≤ 1 |
| CC1CCC2(C(=O)OC3OC(COC4OC(CO)C(OC5OC(C)C(O)C(OC(=O)C(N)Cc6ccc(O)c(O)c6)C5O)C(O)C4O)C(O)C(O)C3O)CCC3(C)C(=CCC4C5(C)CC(O)C(O)C(C)(CO)C5C(O)CC43C)C2C1C [MA-L-DOPA] | 12.9 ± 2.09 | 10.1 ± 2.08 | 7.16 ± 1.11 | 12.5 ± 2.21 | 10 ± 2.06 | 6.93 ± 1.09 |  |
